Measured values from patent US20190282569A1, “STABLE PHARMACEUTICAL COMPOSITION” (ASTELLAS PHARMA INC., priority 2016, published 2019).

Key:
[1] = Stability of the drug substance itself; format: physicochemical; details: drug substance alone, without pharmaceutical additives
[2] = tested on: epidermal growth factor receptor (EGFR) mutant kinase; details: disclosed in Patent literature 1 (WO 2013/108754); cited from earlier work

SMILES	stability of the drug itself (in words) [1]	inhibitory action on an epidermal growth factor receptor (EGFR) mutant kinase [2]
C=CC(=O)N1CC[C@@H](Oc2nc(Nc3ccc(N4CCC(N5CCN(C)CC5)CC4)cc3)c(C(N)=O)nc2CC)C1.CS(=O)(=O)O [compound A monomethanesulfonate, 5-{[(3R)-1-acryloylpyrrolidin-3-yl]oxy}-6-ethyl-3-({4-[4-(4-methylpiperazin-1-yl)piperidin-1-yl]phenyl}amino)-pyrazine-2-carboxamide monomethanesulfonate]	stable	–
C=CC(=O)N1CC[C@@H](Oc2nc(Nc3ccc(N4CCC(N5CCN(C)CC5)CC4)cc3)c(C(N)=O)nc2CC)C1 [compound A, 5-{[(3R)-1-Acryloylpyrrolidin-3-yl]oxy}-6-ethyl-3-({4-[4-(4-methylpiperazin-1-yl)piperidin-1-yl]phenyl}amino)-pyrazine-2-carboxamide]	–	confirmed
